Laboratory results published in patent US20230190857A1, “PEPTIDE WITH AMIDATED CARBOXY TERMINUS HAVING MELANOGENESIS INHIBITORY ACTIVITY AND COMPOSITION COMPRISING SAME” (RUBY CROWN CO. LTD., priority 2018, published 2023).
Entries after “also recorded” stand apart in the source; their conditions may differ. Ends that are not written are not given here. Peptide text beside a SMILES is read from it.

How the values were obtained:
B16-F10 cells [1] = test: Melanogenesis inhibitory activity (melanin content) in B16-F10 cells stimulated with α-MSH; type: cell-based, murine; conditions: for melanogenesis inhibitory effect of short peptides (melanin content): peptide 30 μM to 100 μM, FIG. 4a; for melanogenesis inhibitory effect of glycine derivatives (melanin content): various concentrations, FIG. 5a
Experimental: (§1) Cells were cultured in a humidified incubator at 37° C. and 5% CO2. Murine melanoma B16-F10 cell lines were cultured in Dulbecco' Modified Eagle Medium containing 10% fetal bovine serum and antibiotics (100 U/mL of penicillin, 0.1 mg/mL of streptomycin and 0.25 μg/mL of amphotericin B), which were purchased from the American Type Culture Collection (Manassas, Va., USA). A human epidermal melanocyte (HEM), derived from a pigmented human neonatal foreskin, was purchased from Cascade Biologics (Portland, Oreg., USA) and cultured in medium 254 containing human melanocyte growth supplements (Cascade Biologics) and antibiotics.
(§2) A melanin formation inhibitory effect of the peptide to be analyzed was confirmed by using B16-F10 cell lines and HEM. The B16-F10 cells were treated with test peptides at various concentrations and stimulated for 72 hours by using 100 nM of α-MSH. Hexapeptide B6 (Phe-Ser-His-His-Leu-Gly-NH2) (SEQ ID NO: 20), p-coumaric acid and arbutin were used as a control group. A level of extracellular melanin was measured by using a conditioned medium in which cells were previously cultured. Intracellular melanin was extracted at 60° C. for 60 minutes by using 1.0 M NaOH. A content of melanin was spectroscopically measured by measuring absorbance at 475 nm and resultant values were normalized with regard to a total protein content of cells by using Bio-Rad DC assay.

[2] = system: human epidermal melanocyte (HEM); test: Melanogenesis inhibitory activity (intracellular and extracellular melanin) in HEMs stimulated with α-MSH; type: cell-based; conditions: FIG. 6a
Experimental: as §1
as §2, with “assay. […]” for “assay.”

[3] = system: human epidermal melanocyte (HEM); test: Cell viability, MTT assay, HEMs; type: cell-based; conditions: FIG. 6b
Experimental: (§3) Cell viability was measured by using a 3-(4,5-dimethylthiazol-2-yl)-2,5-diphenyltetrazolium bromide (MTT) assay. B16-F10 cell lines were treated with test peptides at various concentrations for 72 hours. The cells were washed with PBS and cultured in 100 μl of culture fluid, to which 1 mg/mL of MTT (Amresco, Solon, Ohio, USA) was added, for three hours. After that, the culture fluid was removed therefrom and formazan accumulated inside the cells was extracted with 100 μl of dimethyl sulfoxide (DMSO). Absorbance of the extracted solution was measured at 595 nm by using SPECTROstar Nano microplate reader (BMG LABTECH GmbH, Ortenberg, Germany).
(§4) After the B16-F10 cells and HEM were treated with the peptides of Examples 1 to 4 according to the same method, cell viability was measured and the results thereof were summarized in FIGS. 1b, 2b, 3b, 4b, 5b, 6b and 7a respectively.

B16-F10 cells [4] = test: Cell viability, MTT assay, B16-F10 cells; type: cell-based, murine; conditions: up to 300 μM, FIG. 7a
Experimental: as §3, §4

tyrosinase (TYR) [5] = test: TYR activity assay in cell-free extract of treated B16-F10 cells; type: cell-based, murine; conditions: treated 60 minutes, then 100 nM α-MSH 24 hours, FIG. 8a
Experimental: B16-F10 cells were treated with glycinamide-HCl for 60 minutes and stimulated for 24 hours by using 100 nM of α-MSH. The cells were dissolved in 10 mM of cold Tris-HCl buffer solution (pH 7.4) containing 120 mM of sodium chloride, 25 mM of potassium chloride, 2.0 mM of ethylene glycol tetraacetic acid, 1.0 mM of ethylenediaminetetraacetic acid, 0.5% triton X-100, protease inhibitor cocktail (Roche, Mannheim, Germany). Cytolysate was centrifuged at 13,000×g at 4° C. for 15 minutes to obtain a cell-free extract therefrom. TYR activity was measured by using L-tyrosine and L-3,4-dihydroxyphenylalanine. A reaction mixture (200 μL) includes 100 mM of sodium phosphate (pH 6.8), 1.0 mM of L-tyrosine, 42 μM of L-3,4-dihydroxy phenylalanine and a cell-free extract (40 μg of protein), which was cultured at 37° C. A change in absorbance was measured at 475 nm by using Spectrostar Nano microplate reader.

tyrosinase (TYR) [6] = test: Western blotting, TYR protein level in B16-F10 cells; type: cell-based, murine; conditions: both in the presence and in the absence of α-MSH, FIG. 8b
Experimental: (§5) Western blotting was performed as described in a document [Study on phenolic compounds and novel peptides inhibiting UVB- and PM10-induced MMP1 expression and melanogenesis in skin cells. PhD Thesis 2017. Kyungpook National University, Korea]. B16-F10 cells were dissolved in 10 mM of cold Tris-HCl buffer solution (pH 7.2) containing 150 mM of NaCl, 5 mM of EDTA, 0.1% sodium dodecyl sulfate (SDS), 1% triton X-100, 1% deoxycholate, 1 mM of phenylmethylsulphonyl fluoride and protease inhibitor cocktail (Roche). A part of cytolysate (30 μg of protein) was mixed with Laemmli sample buffer, then heated at 95° C. for five minutes to be denaturalized, and then was subject to electrophoresis in 10% SDS-polyacrylamide gel. After the electrophoresis, protein was transferred from gel to polyvinylidene difluoride membrane (Amersham Pharmacia, Little Chalfont, UK). Primary antibodies for TYR, TYRP1, DCT, MITF and @-actin were purchased from Santa Cruz Biotechnology (Santa Cruz, Calif., USA). Primary antibodies for CREB, phospho-CREB (Ser133), extracellular signal-regulated kinase (ERK) and phospho-ERK (Thr202/Tyr204) were purchased from Cell Signaling (located in Danvers, Mass., USA). […] A protein band was visualized by using picoEPD Western Reagent kit (Elpis-Biotech, Daejeon, South Korea), and a depth of image was analyzed by using National Institutes of Health ImageJ program.

[7] = system: tyrosinase-related protein 1 (TYRP1); test: Western blotting, TYRP1 protein level in B16-F10 cells; type: cell-based, murine; conditions: both in the presence and in the absence of α-MSH, FIG. 8b
Experimental: as §5

[8] = system: dopachrometautomerase (DCT); test: Western blotting, DCT protein level in B16-F10 cells; type: cell-based, murine; conditions: both in the presence and in the absence of α-MSH, FIG. 8b
Experimental: as §5

[9] = system: cAMP-responsive element binding protein (CREB); test: Western blotting, phosphorylation of CREB in B16-F10 cells; type: cell-based, murine; conditions: stimulated with α-MSH, FIG. 9a
Experimental: as §5, with “program. […]” for “program.”

[10] = system: extracellular signal-regulated kinase (ERK); test: Western blotting, phosphorylation of ERK in B16-F10 cells; type: cell-based, murine; conditions: stimulated with α-MSH, FIG. 9a
Experimental: as §5, with “program. […]” for “program.”

[11] = system: microphthalmia-associated transcription factor (MITF); test: Western blotting, MITF protein level in B16-F10 cells; type: cell-based, murine; conditions: stimulated with α-MSH, FIG. 9b
Experimental: as §5, with “program. […]” for “program.”

Phe-Trp-Gly-NH2 [E5]
melanogenesis inhibitory effect of short peptides (melanin content) (B16-F10 cells [1]; 100 nM α-MSH, 72 hours): melanogenesis inhibitory activity higher than that of other tripeptides | increase in content of intracellular and extracellular melanins in HEMs [2]: weakened

Arg-Trp-Gly-NH2 [E7]
melanogenesis inhibitory effect of short peptides (melanin content) (B16-F10 cells [1]; 100 nM α-MSH, 72 hours): melanogenesis inhibitory activity higher than that of other tripeptides

NCC(=O)O [free glycine, glycine, reference compound]
melanogenesis inhibitory effect of glycine derivatives (melanin content) (B16-F10 cells [1]; 100 nM α-MSH, 72 hours): no activity

CC(C)C[C@H](NC(=O)[C@@H](N)CCCNC(=N)N)C(=O)N[C@@H](Cc1c[nH]c2ccccc12)C(=O)NCC(N)=O [D5, Arg-Leu-Trp-Gly-NH2] (H-RLWG-NH2)
HEMs cell viability / cytotoxicity [3]: almost no cytotoxicity

Phe-Ser-His-His-Leu-Gly-NH2 (FSHHLG-NH2) [Hexa-peptide B6, reference compound]
melanogenesis inhibitory effect of individual tetrapeptides (melanin content) (B16-F10 cells [1]; peptide 30 μM and 100 μM, 100 nM α-MSH, 72 hours, FIG. 2a): showed a melanogenesis inhibitory effect at 100 μM only

NC(=O)CNC(=O)[C@@H](N)Cc1c[nH]c2ccccc12 [F1, Trp-Gly-NH2] (H-Trp-Gly-NH2)
HEMs cell viability / cytotoxicity [3]: almost no cytotoxicity

Leu-Trp-Gly-NH2 [E6]
melanogenesis inhibitory effect of short peptides (melanin content) (B16-F10 cells [1]; 100 nM α-MSH, 72 hours): melanogenesis inhibitory activity higher than that of other tripeptides

N=C(N)NCCC[C@H](N)C(=O)N[C@@H](Cc1ccccc1)C(=O)N[C@@H](Cc1c[nH]c2ccccc12)C(=O)NCC(N)=O [D3, Arg-Phe-Trp-Gly-NH2] (H-RFWG-NH2)
HEMs cell viability / cytotoxicity [3]: almost no cytotoxicity

Phe-Arg-Trp-Gly (FRWG-NH2) [D9]
melanogenesis inhibitory activity compared with p-coumaric acid and arbutin (B16-F10 cells [1]; peptide 10-30 μM, 100 nM α-MSH, 72 hours, molar comparison, FIG. 3a): melanogenesis inhibitory activity at a concentration lower than that of p-coumaric acid and arbutin; also recorded: the most powerful melanogenesis inhibitory effect

NCC(N)=O [G1, glycinamide]
melanogenesis inhibitory effect of glycine derivatives (melanin content) (B16-F10 cells [1]; 100 nM α-MSH, 72 hours): maintains anti-melanogenesis activity | increase in content of intracellular and extracellular melanins in HEMs [2]: weakened | HEMs cell viability / cytotoxicity [3]: almost no cytotoxicity

Cl.NCC(N)=O [glycinamide-HCl]
level of intracellular and extracellular melanins (B16-F10 cells [1]; 25-100 μM, cells stimulated with α-MSH, FIG. 7b): reduced | cytotoxicity in B16-F10 cells (B16-F10 cells [4]): did not cause any cytotoxicity | TYR activity increased by α-MSH (tyrosinase (TYR) [5]): significantly weakened | protein level of TYR (tyrosinase (TYR) [6]): significantly reduced | protein level of TYRP1 [7]: significantly reduced | protein level of DCT [8]: significantly reduced | phosphorylation of CREB [9]: inhibited | phosphorylation of ERK [10]: did not affect | level of MITF expression increased by α-MSH [11]: weakened
